Results published in patent US6924307B2, “Aminobutyric acid derivatives and pharmaceutical composition containing the same as active ingredient” (Ono Pharmaceutical Co., Ltd., priority 1999, dated 2005).

Columns and labels:
Assay type in all cases: biochemical
[1] = target: T1, collagenase (Homo sapiens, UniProt P03956); assay: Inhibitory activity against collagenase (thiopeptolide synthetic substrate, absorption at 324 nm); details: collagenase from procollagenase purified from human normal skin dermal fibroblasts (HNDF), trypsin-activated; 26° C.
T1 construct: endogenous in cells; host or cells: human normal skin dermal fibroblasts (HNDF)
T1 sequence (P03956 100-469): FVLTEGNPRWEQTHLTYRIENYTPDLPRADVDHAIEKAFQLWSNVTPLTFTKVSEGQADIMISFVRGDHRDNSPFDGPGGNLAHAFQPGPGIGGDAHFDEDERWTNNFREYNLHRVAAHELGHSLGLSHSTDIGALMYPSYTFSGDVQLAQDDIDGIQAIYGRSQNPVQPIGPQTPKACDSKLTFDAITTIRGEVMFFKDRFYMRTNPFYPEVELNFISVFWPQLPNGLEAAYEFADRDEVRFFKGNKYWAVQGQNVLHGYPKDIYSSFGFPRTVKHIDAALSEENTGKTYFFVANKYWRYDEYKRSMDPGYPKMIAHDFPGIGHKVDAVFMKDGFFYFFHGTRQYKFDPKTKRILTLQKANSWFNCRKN
Protocol: (2) Inhibitory Activity Against Collagenase Method:
The procollagenase (5 μl; in assay buffer (105 μl)) was purified from human normal skin dermal fibroblasts (HNDF). It was activated by adding thereto 1 mg/ml Trypsin (45 μl) and preincubating for 1 minute at 37° C. Trypsin was inactivated by addition of 5 mg/ml soybean trypsin inhibitor (SBTI; 50 μl).
A mixture of the synthetic substrate (Ac-Pro-Leu-Gly-[2-mercapto-4-methyl-pentanoyl]-Leu-Gly-OEt) (105 μl; a final concentration 1.33 mM) and a solution (20 μl) with or without various concentrations of the test compound was preincubated for 5 minutes at 26° C.
The solution of activated enzyme (75 μl /tube, 50 μl) was mixed with the mixture and the mixture was incubated for 10 minutes at 26° C.
Absorption at 324 nm was measured 40 points in the course of 10 minutes. Vmax value was determined as measured value in 30 points therein.

[2] = target: T2, gelatinase A (Homo sapiens, UniProt P08253); assay: Inhibitory activity against gelatinase A (fluorogenic synthetic substrate); details: gelatinase A from progelatinase A purified from human normal skin dermal fibroblasts (HNDF), APMA-activated; 37° C.
T2 construct: endogenous in cells; host or cells: human normal skin dermal fibroblasts (HNDF)
T2 sequence (P08253 110-660): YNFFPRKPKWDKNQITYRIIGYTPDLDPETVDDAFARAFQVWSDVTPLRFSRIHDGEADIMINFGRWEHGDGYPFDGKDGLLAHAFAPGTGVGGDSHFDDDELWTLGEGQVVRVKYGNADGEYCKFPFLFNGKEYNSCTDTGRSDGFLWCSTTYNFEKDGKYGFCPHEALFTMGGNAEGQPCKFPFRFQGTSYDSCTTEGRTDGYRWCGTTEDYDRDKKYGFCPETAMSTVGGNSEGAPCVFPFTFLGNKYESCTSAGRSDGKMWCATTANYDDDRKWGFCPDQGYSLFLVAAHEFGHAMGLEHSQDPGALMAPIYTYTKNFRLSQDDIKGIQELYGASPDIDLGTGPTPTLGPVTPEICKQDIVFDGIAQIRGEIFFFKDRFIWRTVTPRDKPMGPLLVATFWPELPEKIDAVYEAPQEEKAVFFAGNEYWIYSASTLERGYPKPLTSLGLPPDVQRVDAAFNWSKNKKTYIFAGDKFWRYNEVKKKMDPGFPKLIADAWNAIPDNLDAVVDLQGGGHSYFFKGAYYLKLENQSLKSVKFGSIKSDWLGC
Protocol: (1) Inhibitory Activity Against Gelatinase A
The progelatinase A (5 μl; in assay buffer (40 μl)) was purified from human normal skin dermal fibroblasts (HNDF). It was activated by adding thereto 10 mM of p-aminophenylmercuric acetate (APMA) (5 μl) and preincubating for 1 hour at 37° C.
A mixture of the synthetic substrate (MOCAc-Pro-Leu-Gly-A2pr(Dnp)-Ala-Arg-NH2) (130 μl; a final concentration 13.5 μM) and a solution (20 μl) with or without various concentrations of the test compound was preincubated for 5 minutes at 37° C.
The solution of activated gelatinase A (50 μl/well) was mixed with the mixture and the mixture was incubated for 15 minutes at 37° C. The enzyme reaction was started. The enzyme activity was represented by increasing value of fluorescent intensity [Ex=325 nm (Ex)/393 nm (Em)] per 1 minute. Inhibitory activity was represented by inhibitory percentage (%) per enzyme activity without the test compound.

[3] = target: T3, human stromelysin (Homo sapiens, UniProt P08254); assay: Inhibitory activity against stromelysin (synthetic substrate NFF-3, fluorescence); details: APMA-activated, pH 7.5, 37° C.
T3 construct: purchased Yagai
Protocol: (3) Inhibitory Activity Against Stromelysin Method:
The mixture of human stromelysin (Yagai; 9 volume) and 10 mM p-aminophenylmercury acetate (1 volume) was activated for 20 hours at 37° C. A solution of the test compound in dimethylsulfoxide (10 μl) and 0.5 mM solution (10 μl) of 10 mM solution of the synthetic substrate NFF-3 (Mca-Arg-Pro-Lys-Pro-Val-Glu-Nva-Trp-Arg-Lys(DNP)-NH2., Nva: norvaline, Peptide Laboratory) in dimethylsulfoxide diluted by water were added to assay buffer (50 mM tris-HCl, 10 mM CaCl2, 0.05% Brij35, 0.02% NaN3 (pH 7.5)) (150 μl). Furthermore, assay buffer (30 μl) was added to the mixture. The mixture was incubated for 10 minutes at 37° C. The reaction was started by addition of a solution of the above activated stromelysin solution (50 μl). The enzyme activity was represented by increasing value of fluorescent intensity [Ex=325 nm (Ex)/393 nm (Em)] per 1 minute. Inhibitory activity was represented by inhibitory percentage (%) per enzyme activity without the test compound.

T3 sequence (P08254 100-477): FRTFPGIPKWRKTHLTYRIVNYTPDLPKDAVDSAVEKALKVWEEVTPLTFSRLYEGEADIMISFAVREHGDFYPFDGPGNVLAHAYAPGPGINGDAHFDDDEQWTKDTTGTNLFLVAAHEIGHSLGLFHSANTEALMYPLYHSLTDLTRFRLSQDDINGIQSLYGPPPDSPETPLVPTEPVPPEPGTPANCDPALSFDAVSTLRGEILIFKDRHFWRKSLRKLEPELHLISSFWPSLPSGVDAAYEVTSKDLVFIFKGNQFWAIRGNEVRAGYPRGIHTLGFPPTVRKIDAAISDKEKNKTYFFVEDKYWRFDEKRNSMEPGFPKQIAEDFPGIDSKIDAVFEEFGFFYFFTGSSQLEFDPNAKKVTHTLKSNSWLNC

SMILES	IC50 [1]	IC50 [2]	IC50 [3]
C#CCOC[C@@H](C[C@@H](COCOCC)NC(=O)c1ccc(Cl)cc1)C(=O)NO [20(3), N-hydroxy-5-ethoxymethoxy-2(R)-(2-propynyloxymethyl)-4(S)-[N-(4-chlorophenylcarbonyl)amino]pentanamide]	6.8 nM		
CCOCOC[C@H](C[C@H](COC)C(=O)NO)NC(=O)c1ccc(C#N)cc1 [compound 8]	14 nM		
CN(C(=O)c1ccc(Br)cc1)[C@H](CO)C[C@H](CCCc1ccccc1)C(=O)NO [16(2), N-hydroxy-2(S)-(3-phenylpropyl)-5-hydroxy-4(S)-[N-methyl-N-(4-bromophenylcarbonyl)amino]pentanamide]		4.2 nM	
CCOCOC[C@H](C[C@H](COC)C(=O)NO)NC(=O)c1ccc(Oc2ccccc2)cc1 [8(6), N-hydroxy-5-ethoxymethoxy-2(R)-methoxymethyl-4(S)-[N-(4-phenoxyphenylcarbonyl)amino]pentanamide]		1.7 nM	29 nM
CCOCOC[C@H](C[C@H](COC)C(=O)NO)NC(=O)c1ccc(-c2ccco2)cc1 [8(7), N-hydroxy-5-ethoxymethoxy-2(R)-methoxymethyl-4(S)-[N-(4-(2-furyl)phenylcarbonyl)amino]pentanamide]			40 nM
C#CC[C@@H](C[C@@H](CO)N(C)C(=O)c1ccc(Br)cc1)C(=O)NO [21(2), N-hydroxy-2(S)-(2-propynyl)-5-hydroxy-4(S)-[N-methyl-N-(4-bromophenylcarbonyl)amino]pentanamide]	7.6 nM		
